Results as given in patent US20260315452A1, “PROTEASE INHIBITORS AND USES THEREOF” (priority 2023, published 2026).
pIC50: −log10 of the molar value.

biological target: SARS-CoV-2 3CLpro (Severe acute respiratory syndrome coronavirus 2, UniProt P0DTD1); experiment: biochemical; conditions: inhibition of SARS-CoV-2 3CLpro; 15 nM 3CLpro, 25 μM fluorogenic substrate, 37° C.; read-out: Inhibitory Activity (IC50)

Compared with `O=C(NC1CC(F)(F)C1)c1cc(Br)cc([N+](=O)[O-])c1N[C@@H]1COC[C@@H]1NC(=O)c1cncc2ccccc12` [Compound 137, N-((3R,4S)-4-((4-bromo-2-((3,3-difluorocyclobutyl)carbamoyl)-6-nitrophenyl)amino)tetrahydrofuran-3-yl)isoquinoline-4-carboxamide], `O=C(NC1CC(F)(F)C1)c1cc(Br)cc([N+](=O)[O-])c1N[C@@H]1CCCC[C@@H]1NC(=O)c1cncc2ccccc12` [Compound 56, N-((1S, 2R)-2-((4-bromo-2-((3,3-difluorocyclobutyl)carbamoyl)-6-nitrophenyl)amino)cyclohexyl)isoquinoline-4-carboxamide] is higher in pIC50: 5.00 to 6.00 for the first, over 7.00 for the second. The second is the more potent here.

Compared with `NC(=O)c1cc(Br)cc([N+](=O)[O-])c1N[C@H]1CN(C(=O)c2cncc3ccccc23)CCC1(F)F` [Compound 49, (S)-5-bromo-2-((4,4-difluoro-1-(isoquinoline-4-carbonyl)piperidin-3-yl)amino)-3-nitrobenzamide], `O=C(O)c1cc(Br)cc([N+](=O)[O-])c1N[C@H]1CN(C(=O)c2cncc3ccccc23)CCC1(F)F` [Compound 153, (S)-5-bromo-2-((4,4-difluoro-1-(isoquinoline-4-carbonyl)piperidin-3-yl)amino)-3-nitrobenzoic acid] is lower in pIC50: over 7.00 for the first, 6.00 to 7.00 for the second. The first is the more potent here.

First: CNC(=O)c1cc(Br)cc([N+](=O)[O-])c1N[C@H]1CN(C(=O)c2cncc(-n3cccn3)c2)CCC1(F)F [Compound 39, (S)-2-((1-(5-(1H-pyrazol-1-yl)nicotinoyl)-4,4-difluoropiperidin-3-yl)amino)-5-bromo-N-methyl-3-nitrobenzamide]
Second: CNC(=O)c1cc(Br)cc([N+](=O)[O-])c1N[C@H]1CN(C(=O)c2cncc3cccnc23)CCC1(F)F [Compound 107, (S)-5-bromo-2-((4,4-difluoro-1-(1,6-naphthyridine-8-carbonyl)piperidin-3-yl)amino)-N-methyl-3-nitrobenzamide]
The pIC50 of the first is lower: 6.00 to 7.00 for the first, over 7.00 for the second.

`CNC(=O)c1cc(Br)cc([N+](=O)[O-])c1N[C@@H]1CCCCN(C(=O)c2cnc3ccccc3c2)C1` [Compound 20, (R)-5-bromo-N-methyl-3-nitro-2-((1-(quinoline-3-carbonyl)azepan-3-yl)amino)benzamide] and `CNC(=O)c1cc(Br)cc([N+](=O)[O-])c1N[C@H]1CN(C(=O)c2cncc3ccccc23)CC[C@H]1C` [Compound 141, 5-bromo-2-(((3R, 4R)-1-(isoquinoline-4-carbonyl)-4-methylpiperidin-3-yl)amino)-N-methyl-3-nitrobenzamide] fall in the same range of pIC50: 6.00 to 7.00 for the first, 6.00 to 7.00 for the second.

`O=C(N[C@H]1CCOC1)c1cc(Cl)cc(C(F)(F)F)c1N[C@H]1CN(C(=O)c2cncc3ccccc23)CCC1(F)F` [Compound 165, 5-chloro-2-(((S)-4,4-difluoro-1-(isoquinoline-4-carbonyl)piperidin-3-yl)amino)-N-((S)-tetrahydrofuran-3-yl)-3-(trifluoromethyl)benzamide] and `O=C(N[C@@H]1CCOC1)c1cc(Br)cc([N+](=O)[O-])c1N[C@H]1CN(C(=O)c2cncc3ccccc23)CC1(F)F` [Compound 163, 5-bromo-2-(((S)-4,4-difluoro-1-(isoquinoline-4-carbonyl)pyrrolidin-3-yl)amino)-3-nitro-N-((R)-tetrahydrofuran-3-yl)benzamide] cannot be ordered by pIC50: over 7.00 for the first, over 7.00 for the second.

`O=C(N[C@@H]1CCNC1)c1cc(Br)cc([N+](=O)[O-])c1N[C@H]1CN(C(=O)c2cncc3ccccc23)CC1(F)F` [Compound 150] and `O=C(c1cc(Br)cc([N+](=O)[O-])c1N[C@H]1CN(C(=O)c2cncc3ccccc23)CC1(F)F)N1CC(F)(F)C1` [Compound 162, (S)-(5-bromo-2-((4,4-difluoro-1-(isoquinoline-4-carbonyl)pyrrolidin-3-yl)amino)-3-nitrophenyl)(3,3-difluoroazetidin-1-yl)methanone] cannot be ordered by pIC50: over 7.00 for the first, over 7.00 for the second.

`CNC(=O)c1cc(Cl)cc([N+](=O)[O-])c1N[C@H]1CN(C(=O)c2cncc3cccc(O)c23)CCC1(F)F` [Compound 174, (S)-5-chloro-2-((4,4-difluoro-1-(5-hydroxyisoquinoline-4-carbonyl)piperidin-3-yl)amino)-N-methyl-3-nitrobenzamide] and `CNC(=O)c1cc(Cl)cc([N+](=O)[O-])c1N[C@H]1CN(C(=O)c2cncc3cnccc23)CCC1(F)F` [Compound 175, (S)-5-chloro-2-((4,4-difluoro-1-(2,7-naphthyridine-4-carbonyl)piperidin-3-yl)amino)-N-methyl-3-nitrobenzamide] cannot be ordered by pIC50: over 7.00 for the first, over 7.00 for the second.

Compared with `CNC(=O)c1cc(Br)cc([N+](=O)[O-])c1N[C@@H]1CN(C(C)=O)CC[C@@H]1NC(=O)c1cncc2ccccc12` [Compound 90, N-((3R, 4S)-1-acetyl-3-((4-bromo-2-(methylcarbamoyl)-6-nitrophenyl)amino)piperidin-4-yl)isoquinoline-4-carboxamide], `CNC(=O)c1cc(Br)cc([N+](=O)[O-])c1N[C@H]1CN(C(=O)c2cncc3ccccc23)C[C@@H]1C` [Compound 50, 5-bromo-2-[[(3R, 4S)-1-(isoquinoline-4-carbonyl)-4-methyl-pyrrolidin-3-yl]amino]-N-methyl-3-nitro-benzamide] is higher in pIC50: 5.00 to 6.00 for the first, over 7.00 for the second.

Compared with `CNC(=O)c1cc(Br)cc([N+](=O)[O-])c1N[C@@H]1CCC(C)(C)N(C(=O)c2cncc3ccccc23)C1` [Compound 138, (R)-5-bromo-2-((1-(isoquinoline-4-carbonyl)-6,6-dimethylpiperidin-3-yl)amino)-N-methyl-3-nitrobenzamide], `CNC(=O)c1cc(Br)cc([N+](=O)[O-])c1NCC1CN(C(=O)c2cncc3ccccc23)CC1(F)F` (stereo not shown) [Compound 77, 5-bromo-2-(((4,4-difluoro-1-(isoquinoline-4-carbonyl)pyrrolidin-3-yl)methyl)amino)-N-methyl-3-nitrobenzamide] is lower in pIC50: 6.00 to 7.00 for the first, 5.00 to 6.00 for the second. The first is the more potent here.

Compared with `CNC(=O)c1cc(Br)cc([N+](=O)[O-])c1N1CC[C@H](CNC(=O)c2cncc3ccccc23)C1` [Compound 25, (R)-N-((1-(4-bromo-2-(methylcarbamoyl)-6-nitrophenyl)pyrrolidin-3-yl)methyl)isoquinoline-4-carboxamide], `CNC(=O)c1cc(Br)cc([N+](=O)[O-])c1N1CCC2(CN(C(=O)c3cncc4ccccc34)C2)C1` [Compound 10, 5-bromo-2-(2-(isoquinoline-4-carbonyl)-2,6-diazaspiro[3, 4]octan-6-yl)-N-methyl-3-nitrobenzamide] is lower in pIC50: 6.00 to 7.00 for the first, at most 5.00 for the second. The first is the more potent here.

First: CNC(=O)c1cc(Br)cc([N+](=O)[O-])c1N[C@H]1CN(C(=O)c2cnnn2C)CCC1(F)F [Compound 113, (S)-5-bromo-2-((4,4-difluoro-1-(1-methyl-1H-1,2,3-triazole-5-carbonyl)piperidin-3-yl)amino)-N-methyl-3-nitrobenzamide]
Second: CNC(=O)c1cc(Br)cc([N+](=O)[O-])c1N[C@H]1CN(Cc2cncc3ccccc23)CCC1(F)F [Compound 32, (S)-5-bromo-2-((4,4-difluoro-1-(isoquinolin-4-ylmethyl)piperidin-3-yl)amino)-N-methyl-3-nitrobenzamide]
The pIC50 of the first is lower: at most 5.00 for the first, 6.00 to 7.00 for the second. The second is the more potent here.

First: CNC(=O)c1cc(Cl)cc([N+](=O)[O-])c1NC(C(C)C)C1CN(C(=O)c2cncc3ccccc23)C1 (stereo not shown) [Compound 130, 5-chloro-2-((1-(1-(isoquinoline-4-carbonyl)azetidin-3-yl)-2-methylpropyl)amino)-N-methyl-3-nitrobenzamide acid]
Second: CNC(=O)c1cc(Cl)cc([N+](=O)[O-])c1N[C@H]1CN(C(=O)c2cncc3ccn(C)c23)CC[C@@H]1F [Compound 178, 5-chloro-2-(((3S, 4S)-4-fluoro-1-(1-methyl-1H-pyrrolo[3,2-c]pyridine-7-carbonyl)piperidin-3-yl)amino)-N-methyl-3-nitrobenzamide]
The pIC50 of the first is lower: 6.00 to 7.00 for the first, over 7.00 for the second.

`CNC(=O)c1cc(Br)cc([N+](=O)[O-])c1N[C@@H]1CCCC[C@@H]1NC(=O)c1cncc(N)c1` [Compound 3, 5-amino-N-((1S, 2R)-2-((4-bromo-2-(methylcarbamoyl)-6-nitrophenyl)amino)cyclohexyl)nicotinamide] and `CNC(=O)c1cc(Br)cc([N+](=O)[O-])c1N[C@H]1CN(C(c2cncc3ccccc23)C(F)(F)F)CCC1(F)F` (stereo partly shown) [Compound 140, 5-bromo-2-(((35)-4,4-difluoro-1-(2,2,2-trifluoro-1-(isoquinolin-4-yl)ethyl)piperidin-3-yl)amino)-N-methyl-3-nitrobenzamide] cannot be ordered by pIC50: 5.00 to 6.00 for the first, at most 5.00 for the second.

`COC1CN(C(=O)c2cc(Br)cc(C(F)(F)F)c2N[C@H]2CN(C(=O)c3cncc4ccccc34)CCC2(F)F)C1` [Compound 172, (S)-(5-bromo-2-((4,4-difluoro-1-(isoquinoline-4-carbonyl)piperidin-3-yl)amino)-3-(trifluoromethyl)phenyl)(3-methoxyazetidin-1-yl)methanone] and `CNC(=O)c1cc(Br)cc(C(F)(F)F)c1N[C@H]1CN(C(=O)c2cncc3cccnc23)CCC1(F)F` [Compound 167, (S)-5-bromo-2-((4,4-difluoro-1-(1,6-naphthyridine-8-carbonyl)piperidin-3-yl)amino)-N-methyl-3-(trifluoromethyl)benzamide] cannot be ordered by pIC50: over 7.00 for the first, over 7.00 for the second.

`O=C(c1cc(Cl)cc([N+](=O)[O-])c1N[C@H]1CN(C(=O)c2cncc3cccnc23)CCC1(F)F)N1CC(O)C1` [Compound 112, (S)-(5-chloro-2-((4,4-difluoro-1-(1,6-naphthyridine-8-carbonyl)piperidin-3-yl)amino)-3-nitrophenyl)(3-hydroxyazetidin-1-yl)methanone] and `O=C(NCC(F)(F)F)c1cc(Br)cc([N+](=O)[O-])c1N[C@H]1CN(C(=O)c2cncc3ccccc23)CCC1(F)F` [Compound 148, (S)-5-bromo-2-((4,4-difluoro-1-(isoquinoline-4-carbonyl)piperidin-3-yl)amino)-3-nitro-N-(2,2,2-trifluoroethyl) benzamide] cannot be ordered by pIC50: over 7.00 for the first, over 7.00 for the second.

`Cc1c(Cl)cncc1C(=O)N1CCC2(CCN(c3c(C(=O)NC4CC(F)(F)C4)cc(Br)cc3[N+](=O)[O-])C2)C1` (stereo not shown) [Compound 24, 5-bromo-2-(7-(5-chloro-4-methylnicotinoyl)-2,7-diazaspiro[4.4]nonan-2-yl)-N-(3,3-difluorocyclobutyl)-3-nitrobenzamide] was tested, and the pIC50 was 5.00 to 6.00.
